Measured values taken from patent EP4692061A1, “LOW-MOLECULAR-WEIGHT COMPOUND HAVING CEREBLON-BINDING ACTIVITY, AND USE THEREOF” (Aevis Bio, Inc., priority 2023, dated 2024).

The molecules below were run against cereblon (CRBN) (Homo sapiens, UniProt Q96SW2) (assay: In vitro CRBN binding assay (AlphaScreen, competitive inhibition of the PROTAC assay)). Conditions: Table 1; AlphaScreen, PROTAC Optimization Kit for BET Bromodomain-Cereblon Binding; read-out: Alpha IC50.

Compound	IC50
O=C1CCC(c2cccc(NS(=O)(=O)c3cccc(NC(=O)c4ccc(Cl)cc4)c3)c2)C(=O)N1 (stereo not shown) [AEV41 001, 4-chloro-N-(3-(N-(3-(2,6-dioxopiperidin-3-yl)phenyl)sulfamoyl)phenyl)benzamide]	1230 nM
COc1ccc(C(=O)Nc2cccc(C3CCC(=O)NC3=O)c2)c(Cl)c1 (stereo not shown) [AEV40176]	1240 nM
O=C1CCC(c2cccc(NS(=O)(=O)c3cccc(NC(=O)c4cccc(Cl)c4)c3)c2)C(=O)N1 (stereo not shown) [AEV40136]	790 nM
O=C1CCC(c2cccc(NS(=O)(=O)c3ccccc3)c2)C(=O)N1 (stereo not shown) [AEV40025]	1860 nM
O=C1CCC(c2cccc(NS(=O)(=O)c3ccccc3[N+](=O)[O-])c2)C(=O)N1 (stereo not shown) [AEV40061]	590 nM
O=C1CCC(c2cccc(NS(=O)(=O)c3cccc([N+](=O)[O-])c3)c2)C(=O)N1 (stereo not shown) [AEV40056]	910 nM
O=C1CCC(c2cccc(NS(=O)(=O)c3cccc(NC(=O)c4cccc(Br)c4)c3)c2)C(=O)N1 (stereo not shown) [AEV40157]	730 nM
C[C@H](O)C(=O)Nc1cccc(C2CCC(=O)NC2=O)c1 (stereo partly shown) [AEV40031]	3860 nM
O=C1CCC(c2cccc(NC(=O)c3cc(-c4ccccc4)ccc3Cl)c2)C(=O)N1 (stereo not shown) [AEV40222]	1720 nM
O=C1CCC(c2cccc(NC(=O)c3cc(Br)ccc3Cl)c2)C(=O)N1 (stereo not shown) [AEV40223]	1380 nM
Cc1ccc(CNc2cccc(C3CCC(=O)NC3=O)c2)c(C)c1 (stereo not shown) [AEV40094]	810 nM
O=C1CCC(c2cccc(NC(=O)c3ccsc3Cl)c2)C(=O)N1 (stereo not shown) [AEV40189]	1630 nM
O=C1CCC(c2cccc(NCc3cccc(C(F)F)c3)c2)C(=O)N1 (stereo not shown) [AEV40105]	1420 nM
O=C1CCC(c2cccc(NS(=O)(=O)c3cccc(NC(=O)c4c(Cl)ccc(Cl)c4F)c3)c2)C(=O)N1 (stereo not shown) [AEV40159]	1490 nM
O=C1CCC(c2cccc(NC(=O)c3ccccc3C(F)(F)F)c2)C(=O)N1 (stereo not shown) [AEV40180]	1130 nM
CCc1ccc(S(=O)(=O)Nc2cccc(C3CCC(=O)NC3=O)c2)cc1 (stereo not shown) [AEV40046]	1000 nM
CC(C)(C)OC(=O)NCc1cccc(Nc2cccc(C3CCC(=O)NC3=O)c2)c1 (stereo not shown) [AEV40186]	2630 nM
O=C1CCC(c2cccc(NC(=O)c3c[nH]c4ccccc34)c2)C(=O)N1 (stereo not shown) [AEV40194]	850 nM
COc1cc(Cl)ccc1CNc1cccc(C2CCC(=O)NC2=O)c1 (stereo not shown) [AEV40096]	990 nM
Cc1ccc(CNc2cccc(C3CCC(=O)NC3=O)c2)s1 (stereo not shown) [AEV40092]	970 nM
O=C1CCC(c2cccc(NC(=O)c3cccc(Cl)c3Cl)c2)C(=O)N1 (stereo not shown) [AEV40134]	1130 nM
O=C1CCC(c2ccc3c(c2)C(=O)NCC3)C(=O)N1 (stereo not shown) [AEV40078]	3110 nM
O=C1CCC(c2cccc(NC(=O)c3ccccc3-c3ccccc3)c2)C(=O)N1 (stereo not shown) [AEV40218]	440 nM
CC1CCC(C(=O)Nc2cccc(N3CCOc4cc(C5CCC(=O)NC5=O)ccc4C3=O)c2)CC1 (stereo not shown) [AEV40213]	2110 nM
O=C1CCC(c2cccc(NCc3ccc(Oc4ccccc4)cc3)c2)C(=O)N1 (stereo not shown) [AEV40103]	3130 nM
COCCN1Cc2cc(C3CCC(=O)NC3=O)ccc2C1=O (stereo not shown) [AEV40042]	5400 nM

Compound	IC50
O=C1CCC(c2cccc(NCc3ccc(F)cc3O)c2)C(=O)N1 (stereo not shown) [AEV40097]	990 nM
O=C1CCC(c2cccc(NC(=O)c3ccccc3Cl)c2)C(=O)N1 (stereo not shown) [AEV40144]	960 nM
O=C1CCC(c2ccc3c(c2)C(=O)NC3)C(=O)N1 (stereo not shown) [AEV40032]	3100 nM
O=C1CCC(c2cccc(NCc3ccc(Br)cc3Cl)c2)C(=O)N1 (stereo not shown) [AEV40109]	2520 nM
CN1Cc2cc(C3CCC(=O)NC3=O)ccc2C1=O (stereo not shown) [AEV40050]	2680 nM
O=C1CCC(c2ccc3c(c2)OCCN(c2cccc(NC(=O)C4CCOCC4)c2)C3=O)C(=O)N1 (stereo not shown) [AEV40216]	2510 nM
Nc1ccc(S(=O)(=O)Nc2cccc(C3CCC(=O)NC3=O)c2)cc1C(F)(F)F (stereo not shown) [AEV40075]	1120 nM
Cc1ccc(NC(=O)CCc2cccc(Nc3cccc(C4CCC(=O)NC4=O)c3)c2)cc1Cl (stereo not shown) [AEV40185]	4350 nM
O=C1CCC(c2cccc(NC(=O)c3ccc(F)cc3)c2)C(=O)N1 (stereo not shown) [AEV40140]	1830 nM
Cc1ccc(CNc2cccc(C3CCC(=O)NC3=O)c2)cc1 (stereo not shown) [AEV40102]	1240 nM
O=C1CCC(c2cccc(NCc3ccc(Cl)cc3)c2)C(=O)N1 (stereo not shown) [AEV40090]	2140 nM
Cc1ccc(C2CCC(=O)NC2=O)cc1 (stereo not shown) [AEV40039]	870 nM
O=C1CCC(c2ccc3c(c2)OCCN(c2cccc(NC(=O)c4ccc(Cl)cc4Cl)c2)C3=O)C(=O)N1 (stereo not shown) [AEV40217]	1180 nM
CC(=O)Nc1cccc(C2CCC(=O)NC2=O)c1 (stereo not shown) [AEV40016]	5280 nM
O=C1CCC(c2cccc(NS(=O)(=O)c3cccc(NC(=O)c4cc(F)cc(F)c4F)c3)c2)C(=O)N1 (stereo not shown) [AEV40158]	710 nM
O=C1CCC(c2cccc(NCc3ccc(-c4ccccc4)cc3)c2)C(=O)N1 (stereo not shown) [AEV40122]	2470 nM
CC(=O)N1CCC(NC(=O)CCc2cccc(Nc3cccc(C4CCC(=O)NC4=O)c3)c2)CC1 (stereo not shown) [AEV40200]	960 nM
O=C1CCC(c2cccc(NC(=O)c3cc4ccccc4[nH]3)c2)C(=O)N1 (stereo not shown) [AEV40190]	2140 nM
CCCc1ccc(S(=O)(=O)Nc2cccc(C3CCC(=O)NC3=O)c2)cc1 (stereo not shown) [AEV40047]	1500 nM
O=C1CCC(c2cccc(NC(=O)c3ccc(Cl)c(Cl)c3)c2)C(=O)N1 (stereo not shown) [AEV40137]	2220 nM
CCCCc1ccc(C(=O)Nc2cccc(N3CCOc4cc(C5CCC(=O)NC5=O)ccc4C3=O)c2)cc1 (stereo not shown) [AEV40214]	820 nM
CC(C)C(=O)Nc1cccc(C2CCC(=O)NC2=O)c1 (stereo not shown) [AEV40024]	6110 nM
O=C1CCC(c2cccc(NS(=O)(=O)c3ccc4oc(=O)ccc4c3)c2)C(=O)N1 (stereo not shown) [AEV40071]	220 nM
O=C1CCC(c2cccc(NC(=O)c3ccc(-c4ccccc4)cc3)c2)C(=O)N1 (stereo not shown) [AEV40161]	> 10000 nM
O=C1CCC(c2ccc3oc(N4CCOCC4)nc3c2)C(=O)N1 (stereo not shown) [AEV40207]	4570 nM
CCCCCCOc1ccc(NC(=O)CCc2cccc(Nc3cccc(C4CCC(=O)NC4=O)c3)c2)cc1 (stereo not shown) [AEV40199]	3470 nM

Compound	IC50
O=C1CCC(c2cccc(NS(=O)(=O)c3ccc([N+](=O)[O-])cc3)c2)C(=O)N1 (stereo not shown) [AEV40055]	200 nM
O=C1CCC(c2ccc3oc(N4CCCCC4)nc3c2)C(=O)N1 (stereo not shown) [AEV40208]	3540 nM
O=C1CCC(c2cccc(NCc3cccc(Oc4ccccc4)c3)c2)C(=O)N1 (stereo not shown) [AEV40121]	3040 nM
O=C1CCC(c2cccc(NC(=O)c3ccccc3Br)c2)C(=O)N1 (stereo not shown) [AEV40179]	640 nM
Cc1cn(C)nc1CNc1cccc(C2CCC(=O)NC2=O)c1 (stereo not shown) [AEV40113]	660 nM
O=C1CCC(c2cccc(NS(=O)(=O)c3ccccc3Cl)c2)C(=O)N1 (stereo not shown) [AEV40057]	590 nM
Nc1cccc(C2CCC(=O)NC2=O)c1 (stereo not shown) [AEV40029]	2960 nM
O=C1CCC(c2cccc(NS(=O)(=O)c3cccc(NC(=O)c4ccc(Cl)cc4)c3)c2)C(=O)N1 (stereo not shown) [AEV40135]	1200 nM
O=C1CCC(c2cccc(NS(=O)(=O)c3cccc(NC(=O)c4cc(F)c(F)cc4F)c3)c2)C(=O)N1 (stereo not shown) [AEV40153]	800 nM
Cn1cc(Cl)c(C(=O)Nc2cccc(C3CCC(=O)NC3=O)c2)n1 (stereo not shown) [AEV40188]	1000 nM
O=C1CCC(c2cccc(NS(=O)(=O)c3ccccc3C(F)(F)F)c2)C(=O)N1 (stereo not shown) [AEV40070]	1050 nM
O=C1CCC(c2cccc(NS(=O)(=O)c3ccc(Cl)cc3Cl)c2)C(=O)N1 (stereo not shown) [AEV40054]	200 nM
Cn1cnc(S(=O)(=O)Nc2cccc(C3CCC(=O)NC3=O)c2)c1 (stereo not shown) [AEV40051]	790 nM
O=C1CCC(c2cccc(Nc3cccc(CCC(=O)NC4CC5(C4)CC(C(=O)O)C5)c3)c2)C(=O)N1 (stereo not shown) [AEV40211]	> 100000 nM
O=C1CCC(c2cccc(NC(=O)c3c(Cl)cc(Cl)cc3Cl)c2)C(=O)N1 (stereo not shown) [AEV40138]	800 nM
O=C1CCC(c2cccc(Nc3cccc(NC(=O)c4ccc(Cl)cc4Cl)c3)c2)C(=O)N1 (stereo not shown) [AEV40220]	2110 nM
O=C1CCC(c2ccc3c(c2)CNC3=O)C(=O)N1 (stereo not shown) [AEV40040]	1390 nM
O=C1CCC(c2ccc3c(c2)OCCN(Cc2ccccc2)C3=O)C(=O)N1 (stereo not shown) [AEV40086]	4140 nM
O=C1CCC(c2cccc(NS(=O)(=O)c3ccc(Cl)cc3F)c2)C(=O)N1 (stereo not shown) [AEV40044]	230 nM
CCCCc1ccc(C(=O)Nc2cccc(Nc3cccc(C4CCC(=O)NC4=O)c3)c2)cc1 (stereo not shown) [AEV40221]	1650 nM
COC(=O)CCc1cccc(Nc2cccc(C3CCC(=O)NC3=O)c2)c1 (stereo not shown) [AEV40184]	1410 nM
O=C1CCC(c2cccc(NS(=O)(=O)c3ccc(F)cc3)c2)C(=O)N1 (stereo not shown) [AEV40101]	1300 nM
O=C1CCC(c2cccc(NCc3cccc(F)c3)c2)C(=O)N1 (stereo not shown) [AEV40107]	1490 nM
Cc1c(Cl)cccc1S(=O)(=O)Nc1cccc(C2CCC(=O)NC2=O)c1 (stereo not shown) [AEV40043]	910 nM
CC(C)(C)c1ccc(CNc2cccc(C3CCC(=O)NC3=O)c2)cc1 (stereo not shown) [AEV40098]	2850 nM

These molecules were tested on MM.1S (assay: Tumor cell viability, CCK-8 assay, MM.1S). Conditions: MM.1S (human multiple myeloma); compound treatment 1uM; 5 days.
Type: cell-based
Description: (§1) To examine whether the compounds having CRBN-binding activity according to the present invention exert tumor cell apoptosis effects, the assay was conducted using various human cancer cell lines, including human multiple myeloma cell lines (MM.1S and MM.1R-LR), a human breast cancer cell line (MDA-MB-231), a human lung cancer cell line (A549), a human rhabdomyosarcoma cell line (RD), and a human lymphoma cell line (Jeko-1).
(§2) The MM.1S, MM.1R-LR, MDA-MB-231, A549, RD, and Jeko-1 cell lines were obtained from the American Type Culture Collection (ATCC, Manassas, VA, USA) and cultured in RPMI 1640 medium (Corning, MD, USA) or DMEM (Corning, MD, USA) supplemented with 10% fetal bovine serum (FBS) (Corning, MD, USA), 100 U/mL penicillin (Corning, MD, USA), and 100 µg/mL streptomycin (Corning, MD, USA) at 37°C in a 5% CO2 incubator for 24 hours. The cells were seeded at a density of 1 × 10^4 cells/well in 96-well plates and incubated for 24 hours. After incubation, the test compounds dissolved in dimethyl sulfoxide (DMSO, CAS No.: 67-68-5) were serially diluted to a final concentration of 10 µM and applied to the cells. Following an additional incubation for 2 to 5 days, the analysis was performed using a CCK-8 assay kit (Dojindo, Japan) according to the manufacturer's instructions.

Compound	Cell viability (% of control)
O=C1CCC(c2cccc(NS(=O)(=O)c3cccc(NC(=O)c4ccc(Cl)cc4)c3)c2)C(=O)N1 (stereo not shown) [AEV41 001, 4-chloro-N-(3-(N-(3-(2,6-dioxopiperidin-3-yl)phenyl)sulfamoyl)phenyl)benzamide]	88.3 % of control

The molecules below were run on MM.1R-LR (assay: Tumor cell viability, CCK-8 assay, MM.1R-LR). Conditions: MM.1R-LR (drug-resistant human multiple myeloma); compound treatment 1uM; 5 days.
Type: cell-based
Description: as §1, §2

Compound	Cell viability (% of control)
O=C1CCC(c2cccc(NS(=O)(=O)c3cccc(NC(=O)c4ccc(Cl)cc4)c3)c2)C(=O)N1 (stereo not shown) [AEV41 001, 4-chloro-N-(3-(N-(3-(2,6-dioxopiperidin-3-yl)phenyl)sulfamoyl)phenyl)benzamide]	78.4 % of control
